Inconclusive results are not listed.
What follows are compounds tested on M. tuberculosis H37Rv growth inhibition, 7H9 media (assay: M. tuberculosis growth inhibition, HTS (AID 449762;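 note: bacterial growth assessed after seven days of incubation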)). Conditions: not given.
In the case of `Clc1ccc(C(Cn2ccnc2)OCc2csc3c(Cl)cccc23)c(Cl)c1` (stereo not drawn), the IC50 is reported as 15.8 µM.
`COC(=O)c1ccc(-c2ncc(-c3cccc4ccccc34)o2)cc1` gave an IC50 of 15.8 µM.
`Brc1ccc2c(c1)C(OC1CN3CCC1CC3)c1ccccc1CS2` (stereo not drawn) gave an IC50 of 25.2 µM.
With `CCOc1ccc(N2C=Nc3ccc(OCC)cc3C2)cc1` the IC50 was 44 µM.
Work on `Cc1ccc(C(=O)N/C(=C/c2ccco2)C(=O)OCN2C(=O)c3ccccc3C2=O)cc1` yielded an IC50 of 6.83 µM.
In the case of `Cc1ccn2c(NC3CCCCC3)c(-c3cccc(-c4cccc(Cl)c4)c3)nc2c1`, the IC50 is reported as 14.2 µM.
In the case of `Nc1c(C(=O)OCC2CCCO2)c2nc3ccccc3nc2n1C1CCCC1` (stereo not drawn), the IC50 is reported as 54.5 µM.
For `CCOc1ccc(N/C(C)=C/C(=O)c2ccc3c(c2)OCCO3)cc1`, the IC50 was 11.6 µM.
`Cc1cccc(C)c1Nc1c(-c2ccccn2)nc2ccccn12` showed an IC50 of 2.18 µM.
Work on `Clc1ccc(SCc2cc(N3CCOCC3)nc(-c3ccccn3)n2)cc1` yielded an IC50 of 0.92 µM.
`COc1ccc(NCc2nc3ccccc3n2CCOc2ccccc2)cc1` was tested, and the IC50 was 44.8 µM.
For `COc1cc(-c2ccc3oc(-c4ccsc4)cc(=O)c3c2)cc(OC)c1OC`, the IC50 was 2.07 µM.
`COc1ccc(C2=NN(C(=O)COC(=O)c3ccc(S(C)(=O)=O)c([N+](=O)[O-])c3)C(c3ccco3)C2)cc1` (stereo not drawn) showed an IC50 of 6.58 µM.
With `CCCCS/C(N)=N/N=C/c1cc(C)ccc1O` the IC50 was 12.3 µM.
`Cc1ccc(C(=O)ONc2ccc(N=O)cc2)cc1` was tested, and the IC50 was 23.2 µM.
`COC(=O)CCc1nc2c(C#N)c(-c3ccc(Cl)cc3)ccn2n1` was tested, and the IC50 was 1.68 µM.
For `CN(C)CCCN1c2ccccc2Sc2ccc(Cl)cc21`, the IC50 was 51.6 µM.
With `CC(C)c1nc2scc(-c3ccc(Cl)cc3)c2c(=O)n1N` the IC50 was 81.8 µM.
`O=C1CC(=C(c2ccccc2)c2ccccc2)C(=O)N1CCCCN1CCN(c2ccccc2)CC1` was tested, and the IC50 was 22.8 µM.
`CN(C)C1(CNC(=O)Nc2ccc(Cl)c(Cl)c2)CCCCC1` was tested, and the IC50 was 11.2 µM.
Work on `C=C[C@]1(C)C[C@@H](OC(=O)CSCCN(CC)CC)[C@]2(C)C(C)CC[C@]3(CCC(=O)[C@H]32)[C@@H](C)[C@@H]1O` (stereo partly drawn) yielded an IC50 of 4.03 µM.
`Oc1ccc(N=Nc2n[nH]c(-c3ccc(Cl)cc3)n2)cc1` was tested, and the IC50 was 11.8 µM.
`O=C(Nc1cccc(Cl)c1)N1CCN(C/C=C/c2ccccc2)CC1` gave an IC50 of 37.5 µM.
For `Cc1cc(C(=O)CCl)c(C)n1CCc1ccc(Cl)cc1`, the IC50 was 0.34 µM.
For `CN(C)c1nc(NCc2ccccc2)nc(N/N=C/c2ccc3c(c2)OCO3)n1`, the IC50 was 42.7 µM.
Work on `[O-][n+]1c2ccccc2c2n1CCN1CCOC21c1ccc(Cl)cc1` (stereo not drawn) yielded an IC50 of 26.1 µM.
Work on `FC(F)(F)c1cc(CO[C@@H]2CCCN[C@@H]2c2ccccc2)cc(C(F)(F)F)c1` yielded an IC50 of 24.5 µM.
`COc1cc(N)c(Cl)cc1C(=O)N[C@H]1CCN(CCCOc2ccc(F)cc2)C[C@H]1OC` showed an IC50 of 43.8 µM.
Compound `CSc1nc2nc3c(c(=O)n2[nH]1)CCCC3` has an IC50 of 20.5 µM.
With `COC(=O)C1C(O)C(C)C(O)C(C)/C=C\C=C(/C)C(=O)Nc2c(C)c(OC(C)=O)c3c(c2O)C(=O)C(C)=C2OCOC(=C23)/C(C)=C/C(C)(O)C(O)C(C)C1O` (stereo not drawn) the IC50 was less than 0.2 µM.
`NC(=O)c1ccc(N=Cc2ccc([N+](=O)[O-])s2)cc1` gave an IC50 of 12.6 µM.
`O=C(Cc1ccccc1)N/N=C/c1ccc2cccc(O)c2n1` was tested, and the IC50 was 7.67 µM.
For `CC(=O)c1cccc2c(O)c(C3=Nc4ccccc4C3=O)[nH]c12`, the IC50 was 11.7 µM.
In the case of `Cc1ccc(NC(=S)N(CCCN2CCCC2)Cc2cccn2Cc2ccc(Cl)cc2)cc1C`, the IC50 is reported as 86 µM.
`Clc1ccc(CCC(Cn2ccnc2)Sc2c(Cl)cccc2Cl)cc1` (stereo not drawn) showed an IC50 of 7.79 µM.
With `CC(=O)c1ccc(Sc2nnnn2-c2ccccc2)c([N+](=O)[O-])c1` the IC50 was 4.48 µM.
`COc1ccccc1C1=NOC(COC(=O)c2ccc([N+](=O)[O-])cc2)C1` (stereo not drawn) showed an IC50 of 34.4 µM.
`Cc1occc1-c1nnc(SCC(=O)NCCc2ccccc2)o1` showed an IC50 of 9.83 µM.
`COc1ccc(N=c2cc(-c3ccc(O)cc3)oc3ccccc23)cc1` gave an IC50 of 22.3 µM.
`C=CCOc1ccccc1CN(C(=O)CCl)c1ccc2c(c1)OCO2` showed an IC50 of 0.92 µM.
`CCc1ccc(C2=NN(c3ccc(S(N)(=O)=O)cc3)C(c3ccc(F)cc3)C2)cc1` (stereo not drawn) showed an IC50 of 36.2 µM.
In the case of `COc1cc(NC(C)CCCN)c2ncccc2c1` (stereo not drawn), the IC50 is reported as 9.14 µM.
`CCC(C)(C)c1ccc(OCCCC[n+]2ccc(C)cc2)c(C(C)(C)CC)c1` was tested, and the IC50 was 10.2 µM.
`COC(=O)c1cc(/C=C/c2ccccc2)on1` gave an IC50 of 16.9 µM.
For `O=C1c2ccccc2-c2onc3ccc(Oc4ccccc4)c1c23`, the IC50 was 5.64 µM.
In the case of `Ic1ccccc1CN[C@@H]1C2CCN(CC2)[C@@H]1C(c1ccccc1)c1ccccc1`, the IC50 is reported as 29.5 µM.
`CCNC(=S)NN=C1c2ccccc2-c2ccccc21` gave an IC50 of 11.2 µM.
`Oc1ccccc1Nc1nc(NCc2ccccc2)c2ccccc2n1` gave an IC50 of 16.1 µM.
Work on `Cc1nc(Nc2ccc(Cl)c(Cl)c2)sc1C(=O)Nc1ccccc1` yielded an IC50 of 19.2 µM.
`COc1ccc2c3n(nc2c1)CCN=C3c1cc(Cl)c(N)c(Cl)c1` gave an IC50 of 12.8 µM.
Work on `CCCn1c(Nc2nc3ccccc3n2C)nc2ccccc21` yielded an IC50 of 83 µM.
With `Cn1c(=O)c(C(=O)NNC(=O)c2cccc(Cl)c2)c(O)c2ccccc21` the IC50 was 0.8 µM.
Compound `NC(=S)N/N=C/c1ccc(-c2ccccc2)o1` has an IC50 of 48.8 µM.
For `O=C1C2(Cl)C3(Cl)C4(Cl)C(Cl)(Cl)C5(Cl)C3(Cl)C1(Cl)C5(Cl)C24Cl` (stereo not drawn), the IC50 was 46.7 µM.
Compound `C=CCn1c(O)c(N=Nc2ccccc2O)c2ccccc21` has an IC50 of 6.1 µM.
Work on `OC(CNCC(c1ccc(Cl)cc1Cl)c1c[nH]c2ccccc12)c1ccccc1` (stereo not drawn) yielded an IC50 of 16.9 µM.
`Cn1cc(NC(=O)CCl)cn1` was tested, and the IC50 was 4.36 µM.
Work on `CCCCn1nc(C(=O)N[C@@H](CCSC)c2nc3ccccc3[nH]2)c2ccccc2c1=O` yielded an IC50 of 53 µM.
Work on `COc1cc2[nH]c(Cl)c([N+](=O)[O-])c2cc1OC` yielded an IC50 of 99.6 µM.
Work on `CCOC(=O)C(C)Sc1nc(-c2cccs2)ccc1C#N` (stereo not drawn) yielded an IC50 of 37.6 µM.
Work on `C=CCc1cc(C)ccc1OCCCC(C(=O)OCC)C(=O)OCC` yielded an IC50 of 9.72 µM.
`Cc1cccc(C)c1OCCCCc1c(C)n[nH]c1C` showed an IC50 of 10.9 µM.
With `O=c1oc2ccccc2c(Nc2ccccc2O)c1[N+](=O)[O-]` the IC50 was 7.1 µM.
`COc1ccc(C2=Nn3c(nnc3-c3ccccc3F)SC2)cc1OC1CCCC1` gave an IC50 of 8.9 µM.
Work on `O=C(COc1ccccc1)NNc1nc2ccccc2s1` yielded an IC50 of 48.4 µM.
Work on `COc1ccccc1Nc1nc(N)nc(CCl)n1` yielded an IC50 of 1.67 µM.
Compound `O=C(NCC(c1cccs1)N1CCOCC1)c1cc([N+](=O)[O-])cc([N+](=O)[O-])c1` (stereo not drawn) has an IC50 of 0.72 µM.
Work on `COc1cc(OC)nc(-n2ncc(Br)c(Br)c2=O)n1` yielded an IC50 of 4.28 µM.
Work on `CCOC(=O)COc1ccc(S(=O)(=O)NCCC2=CCCCC2)cc1` yielded an IC50 of 13.6 µM.
With `CN=c1scc(-c2ccccc2Br)n1/N=C/c1ccc[nH]1` the IC50 was 50 µM.
With `CCCn1nnc(NC(=O)COc2ccc(CC)cc2)n1` the IC50 was 29.7 µM.
`O=C(CSC1=NC(=O)C(c2ccccc2)C(=O)N1)Nc1ccccc1Cl` (stereo not drawn) was tested, and the IC50 was 1.86 µM.
`CCc1ccc(-c2csc(-c3c[nH]c4ccccc34)n2)cc1` showed an IC50 of 10.7 µM.
`CC(C)CS(=O)(=O)C1=NN2C(=N)/C(=C\c3ccc(OC(=O)c4ccco4)cc3)C(=O)N=C2S1` showed an IC50 of 20.6 µM.
`Cc1c([N+](=O)[O-])cnc(Sc2ccccc2)c1[N+](=O)[O-]` was tested, and the IC50 was 2.01 µM.
Compound `CCOC(=O)COc1ccc(C2CC(C)=NN2c2ccccc2)cc1` (stereo not drawn) has an IC50 of 2.81 µM.
For `CC(/C=C/C=C/c1ccccc1)=N\NC(=O)c1cccnc1`, the IC50 was 91.8 µM.
`CC(C)(C)Nc1nc(NC(C)(C)C)nc(-n2ccnc2)n1` was tested, and the IC50 was 14.6 µM.
`COc1ccc(-c2cc(C3CCN(Cc4cccc(C(F)(F)F)c4)CC3)[nH]n2)cc1` gave an IC50 of 10.6 µM.
Work on `Cc1cccc(OCc2n(CC(=O)OC3CC(C)CCC3C(C)C)c3ccccc3[n+]2C)c1` (stereo not drawn) yielded an IC50 of 7.43 µM.
For `O=C(Nc1ccc(OCC(F)(F)C(F)F)c(C(F)(F)F)c1)c1ccc(Cl)cc1`, the IC50 was 35.6 µM.
Compound `O=C(O)C1CC=CCC1C(=O)N1CCN(c2nc(-c3ccccc3Cl)c3cc(Br)ccc3n2)CC1` (stereo not drawn) has an IC50 of 46.4 µM.
For `CCOC(=O)CNC(=O)c1sc2ncnc(N3CCc4ccccc4C3)c2c1C`, the IC50 was 53.2 µM.
For `O=C(c1cc2cc(F)ccc2[nH]1)N(Cc1cccnc1)CC1CCCN(C2CCCCC2)C1` (stereo not drawn), the IC50 was 25 µM.
`COc1c[nH]n(C2CCCCC2)c(=O)c1=O` showed an IC50 of 11.8 µM.
Compound `CCCOc1ccc(N2CC(C(=O)Nc3ccccn3)CC2=O)cc1` (stereo not drawn) has an IC50 of 16.3 µM.

Same assay, conditions: measured here: IC90 growth inhibition
With `Clc1ccc(C(Cn2ccnc2)OCc2csc3c(Cl)cccc23)c(Cl)c1` (stereo not drawn) the IC90 was 24.8 µM.
Work on `COC(=O)c1ccc(-c2ncc(-c3cccc4ccccc34)o2)cc1` yielded an IC90 of 52.7 µM.

From PubChem BioAssay AID449762 (Southern Research Specialized Biocontainment Screening …, 2010)
